From ChEMBL document CHEMBL5584311, “Antiviral Chlorinated Drimane Meroterpenoids from the Fungus Talaromyces pinophilus LD-7 and Their Biosynthetic Pathway” (J Nat Prod, 2024)

Legend:
[1] = test system: Vesicular stomatitis virus; assay: Antiviral activity against Vesicular stomatitis virus infected in African green monkey Vero cells assessed as inhibition of cytopathic effect pre-infected with cells for 12 hrs followed by viral infection and measured after 24 hrs by fluorescence based CPE reduction method; format: functional, organism-based
Hepatitis C virus = assay: Antiviral activity against HCV infected in human Huh7.5 cells stably expressing firefly luciferase by microplate luminometer based analysis; format: functional, organism-based, Hepacivirus hominis
MGC-803 = assay: Cytotoxicity against human MGC-803 cells; format: functional
K562 = assay: Cytotoxicity against human K562 cells; format: functional
[2] = Cytotoxicity against human MCF7/ADM cells; format: functional
HL-60 = assay: Cytotoxicity against human HL-60 cells; format: functional
U-87 MG = assay: Cytotoxicity against human U87 cells; format: functional, U-87MG ATCC
HCT-116 = assay: Cytotoxicity against human HCT-116 cells; format: functional
A549 = assay: Cytotoxicity against human A549 cells; format: functional
SH-SY5Y = assay: Cytotoxicity against human SH-SY5Y cells; format: functional
NCI-H1975 = assay: Cytotoxicity against human NCI-H1975 cells; format: functional
Bel-7402 = assay: Cytotoxicity against human Bel-7402 cells; format: functional
MDA-MB-231 = assay: Cytotoxicity against human MDA-MB-231 cells; format: functional
[3] = Cytotoxicity against human HO-8910 cells; format: functional

| Structure (SMILES) | IC50 [1] | further results |
| --- | --- | --- |
| C[C@@H]1Cc2c3c(cc(O)c2C(=O)O1)O[C@]1(C)CC[C@H]2C(C)(C)C(=O)CC[C@]2(C)[C@H]1C3 | 0.023 µM | – |
| CC(C)[C@@]12CC[C@]3(C)[C@]4(Cc5c(cc(O)c6c5[C@@H](O)[C@@H](C)OC6=O)O[C@]4(C)CC[C@]3(O)O1)O2 | 0.43 µM | – |
| CC(C)C1=CC[C@@]2(C)C(=O)CC[C@@]3(C)Oc4cc(O)c5c(c4C[C@@]32O1)[C@@H](O)[C@@H](C)OC5=O | 0.97 µM | – |
| CC(=O)O[C@@H]1c2c3c(c(Cl)c(O)c2C(=O)O[C@@H]1C)O[C@]1(C)CC[C@@H]2O[C@@]4(C(C)C)CC[C@]2(C)[C@]1(C3)O4 | 0.082 µM | – |
| CC(=O)O[C@@H]1c2c3c(cc(O)c2C(=O)O[C@@H]1C)O[C@]1(C)CC[C@]2(O)C(C)(C)[C@@]4(O)CC[C@]2(C)[C@]1(C3)O4 | 0.19 µM | – |
| CC1=C(O)C(=O)[C@@]23C(C)CC[C@@H]2[C@H](C)CO[C@]32Oc3cc(O)cc(CO)c3C=C12 (stereo not given in full) | – | IC50 (Hepatitis C virus): 9.5 µM |
| CC(=O)O[C@@H]1c2c3c(cc(O)c2C(=O)O[C@@H]1C)O[C@]1(C)CC[C@]2(O)O[C@@]4(C(C)C)CC[C@]2(C)[C@]1(C3)O4 | 0.57 µM | – |
| CC(=O)O[C@@H]1c2c3c(cc(O)c2C(=O)O[C@@H]1C)O[C@]1(C)CCC(=O)[C@]2(C)CC=C(C(C)C)O[C@]12C3 | 0.32 µM | – |
| CC(=O)O[C@@H]1c2c3c(cc(O)c2C(=O)O[C@@H]1C)O[C@]1(C)CC[C@@H]2O[C@@]4(C(C)C)CC[C@]2(C)[C@]1(C3)O4 | 0.49 µM | – |
| C[C@@H]1Cc2c3c(c(Cl)c(O)c2C(=O)O1)O[C@]1(C)CC[C@]2(O)C(C)(C)[C@@]4(O)CC[C@]2(C)[C@]1(C3)O4 | 0.083 µM | – |
| CC(C)[C@]12CC[C@@]3(C)[C@H](CC[C@@]4(C)Oc5c(Cl)c(O)c6c(c5C[C@@]43O1)C[C@@H](C)OC6=O)O2 | 0.018 µM | – |
| C[C@@H]1Cc2c3c(cc(O)c2C(=O)O1)O[C@]1(C)CC[C@]2(O)C(C)(C)[C@@]4(O)CC[C@]2(C)[C@]1(C3)O4 | 0.13 µM | – |
| CC(C)[C@@]12CC[C@]3(C)[C@]4(Cc5c6c(c(O)c(Cl)c5O[C@]4(C)CC[C@]3(O)O1)C(=O)O[C@H](C)C6)O2 | 0.18 µM | – |
| C[C@@H]1Cc2c3c(cc(O)c2C(=O)O1)O[C@]1(C)CCC[C@](C)([C@H]2C[C@@H](O)C2(C)C)[C@H]1C3 | – | CC50 (MGC-803): 3.35 µM; CC50 (K562): 3.35 µM; CC50 [2]: 3.35 µM; CC50 (HL-60): 3.35 µM; CC50 (U-87 MG): 3.35 µM; CC50 (HCT-116): 3.35 µM; CC50 (A549): 3.35 µM; CC50 (SH-SY5Y): 3.35 µM; CC50 (NCI-H1975): 3.35 µM; CC50 (Bel-7402): 3.35 µM; CC50 (MDA-MB-231): 3.35 µM; CC50 [3]: 3.35 µM |
| NC(=O)c1ncn([C@@H]2O[C@H](CO)[C@@H](O)[C@H]2O)n1 [RIBAVIRIN] | 0.046 µM | – |
| CC(=O)O[C@@H]1c2c3c(c(Cl)c(O)c2C(=O)O[C@@H]1C)O[C@]1(C)CC[C@]2(O)O[C@@]4(C(C)C)CC[C@]2(C)[C@]1(C3)O4 | 0.26 µM | – |
| CC(=O)O[C@@H]1c2c3c(c(Cl)c(O)c2C(=O)O[C@@H]1C)O[C@]1(C)CCC(=O)[C@]2(C)CC=C(C(C)C)O[C@]12C3 | 0.28 µM | – |
| CC(C)[C@]12CC[C@@]3(C)[C@H](CC[C@@]4(C)Oc5cc(O)c6c(c5C[C@@]43O1)C[C@@H](C)OC6=O)O2 | 0.91 µM | – |
| C[C@@H]1Cc2c3c(c(Cl)c(O)c2C(=O)O1)O[C@]1(C)CC[C@H]2C(C)(C)C(=O)CC[C@]2(C)[C@@]1(O)C3 | 0.015 µM | – |
